According to patent US9573956B2, “Compounds as dual inhibitors of phosphodiesterases and histone deacetylases” (FUNDACIÓN PARA LA INVESTIGACIÓN MÉDICA APLICADA, priority 2013, dated 2017):

Assays:
HDAC6 = molecular target: T1, HDAC6 (Homo sapiens, UniProt Q9UBN7); assay: HDAC enzyme activity assay (fluorogenic substrate), HDAC6; format: biochemical; conditions: recombinant enzyme; read-out: HDAC6 inhibition (IC50)
T1 construct: BC069243; Cat. #50006) is full-length with N-terminal GST tag; GST (N); purchased BPS Biosciences 50006; host or cells: baculovirus infected Sf9 cells
T1 sequence (Q9UBN7 1-1215): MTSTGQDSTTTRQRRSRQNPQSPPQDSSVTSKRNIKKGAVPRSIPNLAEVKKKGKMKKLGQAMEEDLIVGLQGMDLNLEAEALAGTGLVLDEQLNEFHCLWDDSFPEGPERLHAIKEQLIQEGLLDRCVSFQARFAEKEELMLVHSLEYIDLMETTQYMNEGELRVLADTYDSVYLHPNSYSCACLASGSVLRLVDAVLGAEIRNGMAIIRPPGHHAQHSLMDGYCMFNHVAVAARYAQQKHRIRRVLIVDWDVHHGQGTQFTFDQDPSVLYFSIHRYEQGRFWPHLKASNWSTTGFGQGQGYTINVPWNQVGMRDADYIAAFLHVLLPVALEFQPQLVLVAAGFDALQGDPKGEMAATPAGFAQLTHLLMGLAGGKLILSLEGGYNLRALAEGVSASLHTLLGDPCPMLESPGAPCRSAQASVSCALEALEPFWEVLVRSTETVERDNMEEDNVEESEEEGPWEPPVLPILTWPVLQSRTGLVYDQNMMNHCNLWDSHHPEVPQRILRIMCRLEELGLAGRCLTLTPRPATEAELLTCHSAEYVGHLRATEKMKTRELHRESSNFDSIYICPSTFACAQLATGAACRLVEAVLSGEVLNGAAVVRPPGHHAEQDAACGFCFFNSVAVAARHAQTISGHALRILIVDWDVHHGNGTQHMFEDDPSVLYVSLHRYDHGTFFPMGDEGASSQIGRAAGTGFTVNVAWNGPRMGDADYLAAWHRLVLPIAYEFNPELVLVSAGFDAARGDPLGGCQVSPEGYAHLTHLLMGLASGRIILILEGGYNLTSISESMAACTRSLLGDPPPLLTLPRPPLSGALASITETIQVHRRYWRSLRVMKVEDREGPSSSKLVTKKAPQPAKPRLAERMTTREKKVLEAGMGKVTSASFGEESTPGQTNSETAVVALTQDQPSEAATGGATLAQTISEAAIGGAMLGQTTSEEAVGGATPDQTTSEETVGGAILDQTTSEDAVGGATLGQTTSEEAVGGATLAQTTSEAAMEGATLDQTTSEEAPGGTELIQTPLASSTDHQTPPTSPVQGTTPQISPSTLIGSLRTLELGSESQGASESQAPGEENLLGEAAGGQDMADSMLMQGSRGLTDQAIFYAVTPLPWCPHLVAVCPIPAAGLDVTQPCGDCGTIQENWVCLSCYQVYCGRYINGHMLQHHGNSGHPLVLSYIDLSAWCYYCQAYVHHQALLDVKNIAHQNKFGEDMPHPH

[1] = tested on: phosphorylated tau (p-tau); assay: AD-related markers in Tg2576 neurons: pTau; format: cell-based; conditions: Mus musculus, Neuron, 48 h, treated two days, EC50 = 50% decrease in pTau over basal
PDE9A isoform b = molecular target: T2, PDE9A isoform b (Homo sapiens, UniProt O76083); assay: PDE enzyme activity assay (HTRF cGMP), PDE9A; format: biochemical; conditions: recombinant enzyme; read-out: PDE9A inhibition (IC50)
T2 construct: they are full-length with N-terminal GST tag; GST (N); purchased BPS Biosciences 60090; host or cells: baculovirus infected Sf9 cells
T2 sequence (O76083 1-533 isoform O76083-2): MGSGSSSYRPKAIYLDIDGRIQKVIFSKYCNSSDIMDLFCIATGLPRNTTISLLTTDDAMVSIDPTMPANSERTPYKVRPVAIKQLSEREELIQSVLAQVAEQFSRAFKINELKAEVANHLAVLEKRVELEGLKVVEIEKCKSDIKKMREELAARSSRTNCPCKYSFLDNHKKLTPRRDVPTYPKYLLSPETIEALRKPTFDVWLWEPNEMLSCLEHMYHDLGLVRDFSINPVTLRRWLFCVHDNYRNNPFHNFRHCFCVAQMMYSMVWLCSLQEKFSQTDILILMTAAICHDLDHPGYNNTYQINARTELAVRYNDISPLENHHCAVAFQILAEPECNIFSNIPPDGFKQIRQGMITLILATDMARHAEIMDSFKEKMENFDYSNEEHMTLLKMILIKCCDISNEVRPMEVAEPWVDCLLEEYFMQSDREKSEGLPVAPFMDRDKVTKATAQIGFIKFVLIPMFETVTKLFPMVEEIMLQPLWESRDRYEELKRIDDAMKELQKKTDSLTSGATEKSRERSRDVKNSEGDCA

IC50 (HDAC6) | EC50 [1] | IC50 (PDE9A isoform b) | Structure (SMILES)
10 to 1000 nM | 10 to 1000 nM |  | CCCc1nn(C)c2c(=O)[nH]c(-c3cc(CC4CC(C(=O)NO)C4)ccc3OCC)nc12 (racemic) [Example 1-19, 3-[[4-ethoxy-3-(1-methyl-7-oxo-3-propyl-6H-pyrazolo[4,3-d]pyrimidin-5-yl)phenyl]methyl]cyclobutanecarbohydroxamic acid]
10 to 1000 nM |  | > 10000 nM | CCCc1nn(C)c2c(=O)[nH]c(-c3cc(S(=O)(=O)N4CCN(c5ncc(C(=O)NO)cn5)CC4)ccc3OCC)nc12 [Example 1-06, 2-(4-[3-(6,7-Dihydro-1-methyl-7-oxo-3-propyl-1H-pyrazolo[4,3-d]pyrimidin-5-yl)-4-ethoxyphenylsulfonyl]piperazin-1-yl)-N-hydroxypyrimidine-5-carboxamide]
10 to 1000 nM |  |  | CCCc1nn(C)c2c(=O)[nH]c(-c3cc(Cc4ccc(C(=O)NO)cc4)ccc3OCC)nc12 [Example 1-15, 4-[[4-ethoxy-3-(1-methyl-7-oxo-3-propyl-6H-pyrazolo[4,3-d]pyrimidin-5-yl)phenyl]methyl]benzenecarbohydroxamic acid]
10 to 1000 nM | 10 to 1000 nM |  | CCCc1nn(C)c2c(=O)[nH]c(-c3cc(Cc4ccc(C(=O)NO)s4)ccc3OCC)nc12 [Example 1-16]
